“Also recorded” adds a separate entry of the source.
Legend:
C57BL/6 mice [1] = assay: In vivo Fluc expression of capped mRNA-LNPs by in vivo imaging system (IVIS); conditions: for expression levels of Fluc protein in liver and muscle (injection site) tissues: Experiment 2, by in vivo imaging system and by ex vivo Luciferase assay, vs Cleancap AG (FIG. 13); for in vivo expression levels of Fluc protein (in vivo imaging system): vs Cleancap AG-mRNA; for Fluc expression in vivo, summary of FIGS. 10-13: mice, intramuscular mRNA-LNPs, compared to Cleancap AG
Description: (§1) Female C57BL/6 mice 7-8 weeks of age were randomly allocated to experimental groups, 30 mice per group. For each group, 6 experimental conditions were set up: 2 mRNA doses (0.01, 0.1 mg/kg) and 3 time points 6 h, 24 h, 48 h (5 mice/dose/time point). A single intramuscular injection of mRNA-loaded LNPs was performed (injection volume 40 µl). At 6 h, 24 h and 48 h post-injection, 5 animals/dose in each group were taken for in vivo tissue and organ imaging. The animals were shaved and intraperitoneally injected with 200 µL of a d-luciferin solution (15 mg/mL in DPBS) D-luciferin and anesthetized 8 min later using isoflurane (5% induction, 2% maintenance in pure oxygen). The emitted light was measured by in vivo imaging system (IVIS) exactly 12 min after d-luciferin injection. Whole body supine and lateral position imaging was carried out.
(§2) After Whole body imaging, the animals were euthanized, and the leg muscles (injection site) were harvested in Experiment 1; muscles and livers were harvested in Experiment 2. The emitted light by the tissues/organs was measured by IVIS in less than 25 min after d-luciferin injection.

HeLa cells = assay: Fluc mRNA carrying 5′-cap analogs, translation in HeLa cells (luciferase luminescence); format: cell-based; conditions: for Fluc expression in vitro, summary of FIGS. 7-9: HeLa cells, compared to the control Cleancap AG; for expression levels of Fluc protein by mRNAs containing different 5′caps: HeLa
Description: The novel 5′ -caps synthesized were incorporated into Firefly luciferase (Fluc) mRNA using pGL-T7-AG-nUTR002-Fluc-HBB3UTR-30+70A-BpiI (Kana-AGG-BpiI Plasmid Size: 4856bp). Then, the dose responses of the new cap analogs were compared to commercially available Cap analog from Trilink m7G(5′)ppp(5′)(2′OMeA)pG (cat no. N-7113).
Briefly, 1 µg GLuc (AGG plasmid) template per reaction was transcribed in vitro using a High Yield T7 mRNA synthesis kit (NEB, E2040S). Cap analogs were added by co-transcription. Transcription was carried out for 2 hours, followed by DNase I treatment for 15 min. Ratio of NTP to Cap analogs, 10:4 (10 mM NTP each, 4 mM cap).
Expected mRNA length: 2008 nt. Then the small scale IVT mRNAs were purified using DNA Selection Magnetic beads (Yeasen,12601ES56), Large scale IVT mRNAs were purified using POROS™ Oligo (dT)25 (Thermofisher, A47383) and Ultrafiltration use Amicon® Ultra-15(Merk, UFC910024), the RNA was quantitated using Nanodrop, and 500 ng of each mRNA was run on agarose E-Gel, mRNAs were run on a 2100 bioanalyzer or CE (PA800) for checking mRNA integrity, HPLC for Purity, DNAzyme-PAGE for Capping efficiency and polyA quality. Large scale mRNA were subjected to more QC (Capping/polyA tail-LC-MS, Template DNA residual-qPCR, dsRNA-Elisa, pH).
Novel 5 ′-cap structures that were synthesized were incorporated into Firefly luciferase (Fluc) mRNA via IVT as described above and then assessed for translation efficacy in HeLa cells following transfection. Briefly, HeLa cells were seeded in a 96-well plate (20000cells/0.1 ml/well). The next day (approx. ∼80-90% confluent), the cells were transfected with 25, 50, or 100 ng/well of Fluc-mRNA samples using 2 µl/ml of Lipofectamine MessengerMax (Thermo Scientific, cat#LMRNA015) or in-house formulated lipid-nanoparticles (LNPs). The cells were incubated for another 24 h. To monitor the functional (translation) activity of Fluc mRNAs into which different 5′cap analogs have been incorporated, the Fluc protein expression was evaluated by adding 60 µl Bio Lite Luciferase Assay System (Vazyme, cat # DD1201-02) into each well, incubating the plates at room temperature for 10 min, and measuring the luminescence using a multimode plate reader luminometer. All wells were assayed in triplicates. Statistical analysis was performed using two-way ANOVA followed by uncorrected Fisher’s LSD.

C57BL/6 mice [2] = assay: Ex vivo Luciferase assay of tissue homogenates after mRNA-LNP injection; format: in vivo; conditions: Experiment 1, low and high dose regimens, different time points; vs Cleancap AG-mRNA
Description: as §1, §2
Next, tissue lysates were prepared by homogenization and Glo Lysis Buffer 1X (Abcam cat # ab6789) treatment. The lysates were centrifuged at 4° C. for 15 min at 10000 g, and the supernatants were used for total protein quantification and luciferase activity assessment. […]

C3 tumors = assay: C3 Tumor Model, capped HPV E6/E7 mRNA; format: in vivo; conditions: GL2288 mRNA, mid dose (0.05 mg/Kg), intramuscular Day 0; vs CC
Description: As soon as the C3 tumors reached 100 mm^3, our HPV E6/E7 mRNA sequence (GL2281) (wherein the sequence encoding HPV E6-E7 is SEQ ID NO:2), capped with either CleanCap, GL-Cap5 or GL-Cap1, was administered intramuscularly at 10 µg per dose, with the first dose on Day 0 and second dose on Day 10. The PBS and 10 µg of CleanCap-capped Luciferase mRNA (FF luciferase) were used for comparison.
As soon as the C3 tumors reached 100 mm3, our HPV E6/E7 mRNA sequence (GL2288) (wherein the sequence encoding HPV E6-E7 is SEQ ID NO:1), capped with either CleanCap (CC), or GL-Cap7, was administered intramuscularly at different doses at Day 0. The CleanCap-capped Luciferase mRNA (FF Luciferase) was used for comparison.

[3] = Experiment 2, single intramuscular dose 0.1 mg/kg, 6 h after injection

Row | Structure (SMILES) | expression levels of Fluc protein in liver and muscle (injection site) tissues (C57BL/6 mice [1]) | in vivo expression levels of Fluc protein (in vivo imaging system) (C57BL/6 mice [1]; [3]) | Fluc expression in vitro, summary of FIGS. 7-9 (HeLa cells) | expression levels of Fluc protein by mRNAs containing different 5′caps (HeLa cells; 24 h, in-house LNP formulation, high and medium doses (FIG. 7B)) | expression levels of Fluc protein by mRNAs containing different 5′caps (HeLa cells; 24 h post-transfection, Lipofectamine MessengerMax, different tested doses, vs Cleancap AG (FIG. 7A)) | expression levels of Fluc protein in muscle tissue homogenates (ex vivo Luciferase assay) (C57BL/6 mice [2]) | in vivo expression levels of Fluc protein (in vivo imaging system) (C57BL/6 mice [1]; Experiment 1, single intramuscular dose of mRNA-LNPs, low and high dose regimens, 6 h, 24 h, 48 h) | Fluc expression in vivo, summary of FIGS. 10-13 (C57BL/6 mice [1]) | anti-tumor efficacy (C3 tumors) | expression levels of Fluc protein by mRNAs containing different 5′caps (HeLa cells; 24 h, in-house LNP formulation, low doses (FIG. 7B))
1 | C[n+]1cn([C@@H]2O[C@H](COP(=O)([O-])OP(=O)(O)OP(=O)(O)OC[C@]34COC(C3OP(=O)(O)OC[C@]35COC(C3OP(=O)(O)OC[C@H]3O[C@@H](n6cnc7c(=O)[nH]c(N)nc76)C(O)C3O)[C@H](n3cnc6c(N)ncnc63)O5)[C@H](n3cnc5c(N)ncnc53)O4)C(O)C2O)c2nc(N)[nH]c(=O)c21 (some centres unmarked) [GL-Cap1, 7mGppp(locked)Ap(locked)ApG] | better | slightly higher than in the Cleancap AG group, but without statistical significance |  |  |  |  |  |  |  | 
2 | C[n+]1cn([C@@H]2O[C@H](COP(=O)([O-])OP(=O)(O)OP(=O)(O)OC[C@]34COC(C3OP(=O)(O)OC[C@H]3O[C@@H](n5cnc6c(=O)[nH]c(N)nc65)C(O)C3O)[C@H](n3cnc5c(N)ncnc53)O4)C(O)C2O)c2nc(N)[nH]c(=O)c21 (some centres unmarked) [GL-Cap5, 7mGppp(locked)ApG] | comparable | significantly higher Fluc expression levels | stronger expression | significantly higher than all the other tested caps | significantly higher expression level at different tested doses | higher than with Cleancap AG-mRNA | significantly higher Fluc expression levels; also recorded: the strongest expression level among the tested caps | significantly stronger expression |  | 
3 | C[n+]1cn([C@@H]2O[C@H](COP(=O)([O-])OP(=O)(O)OP(=O)(O)OC[C@]34COC(C3OP(=O)(O)OC[C@H]3O[C@@H](n5cnc6c(=O)[nH]c(N)nc65)C(O)C3O)[C@H](n3cnc5c(N)ncnc53)O4)C(O)C2F)c2nc(N)[nH]c(=O)c21 (some centres unmarked) [GL-Cap7, 7m-2′F-Gppp(locked)ApG] | better; also recorded: highest expression levels | significantly higher Fluc expression levels | stronger expression |  |  |  |  | significantly stronger expression | higher anti-tumor efficacy than CC | 
4 | COCCOC1C(O)[C@@H](COP(=O)([O-])OP(=O)(O)OP(=O)(O)OC[C@]23COC(C2OP(=O)(O)OC[C@H]2O[C@@H](n4cnc5c(=O)[nH]c(N)nc54)C(O)C2O)[C@H](n2cnc4c(N)ncnc42)O3)O[C@H]1n1c[n+](C)c2c(=O)[nH]c(N)nc21 (some centres unmarked) [GL-Cap8, 7m-2-′MOE-Gppp(locked)ApG] | better; also recorded: highest expression levels |  |  |  |  |  |  |  |  | stronger expression than Cleancap AG (Trilink)

— US20230250127A1, “MODIFIED mRNA 5'-CAP ANALOGS” (Nanjing GeneLeap Biotechnology Co., Ltd., priority 2021, published 2023)
